From patent US6528251B2, “Method of managing the chemotherapy of patients who are HIV positive based on the phenotypic drug sensitivity of human HIV strains” (Virco N.V., priority 1996, dated 2003)
Read-outs that look alike come from different tables or passages of the source.

Legend:
Type in all cases: cell-based, HIV-1
[1] = system: recombinant virus from patient viral RNA (Example 12); assay: Recombinant virus assay (MT4/MTT), patient of Example 12 (therapy history RT and protease inhibitors); details: for IC50: Human immunodeficiency virus 1, Table 8, Example 12 patient virus
Method: (§1) RNA was isolated from 100 μl of plasma according to the method described by Boom, R. et al. (1990, supra), and was reverse transcribed with the GeneAmp reverse transcriptase kit (Perkin Elmer) as described by the manufacturer and using an HIV-1 specific downstream primer (OUT3: 5′-CATTGCTCTCCAATTACTGTGATATTTCTCATC-3′; SEQ ID NO: 1). PCR on reverse transcribed RNA was performed with inner and outer primers as described by Kellam, P. and Larder, B. A. (1994, supra). After chloroform extraction and centrifugation on Centricon 100 columns or centrifugation on anion-exchange spin columns (Quiagen), the isolated PCR product was ready for use in the transfection reactions.
(§2) MT4 cells were subcultured at a density of 250,000 cells/ml before transfection (exponential growth phase). Cells were pelleted and resuspended in phosphate buffered saline (PBS) at a concentration of […]. A 0.8 ml portion (2.5 10E6 cells/ml) was used for each transfection. Transfection was performed with the Bio-Rad Gene pulser making use of 0.4 cm electrode cuvettes. Cells were electroporated in the presence of […] of linearised pHIVΔRT plasmid and approximately 5 μg of RT PCR product at 250SF and 300 V, followed by a 30-min incubation at room temperature. Subsequently, 10 ml of fresh culture medium was added to the cell suspension and incubation was performed at 37° C. in a humidified atmosphere of 5% CO2.
(§3) During 7 to 10 days following the transfection, cells were monitored for the appearance of cytopathogenic effect (CPE). In the absence thereof, cells were subcultured in different flasks. Subsequently, culture supernatants of transfected cells were used to create a stock of recombinant virus and stored in 1.5 ml aliquots at −70° C.
(§4) After titration of the new viruses, the stocks were used for antiviral experiments in the presence of serial dilutions of different HIV inhibitors. Titres of the harvested supematants were determined by limited serial dilution titration of virus in MT4 cells.
(§5) Viruses with a useful titre were used in antiviral experiments. For this purpose, 96-well microtitre plates were filled with 100μl of complete culture medium. Subsequently, stock solutions of compounds were added in 25 μl volumes to series of duplicate wells. HIV- and mock-infected cell samples were included for each drug (or drug combination). Exponentially growing MT4 cells were then transferred to the microtitre plates at a density of 150,000 cells/ml. The cell cultures were then incubated at 37° C. in a humidified atmosphere of 5% CO2. Five days after infection, the viability of the mock- and HIV-infected cells was examined spectrophotometrically by the M1T method (Pauwels, R. et al. J. Virol. Meth. (1988), 20: 309-321) as described in Section 6 below.
(§6) To each well of the microtiter plates, 20 μl of a solution of MTT (7.5 mg/ml in PBS) was added. The plates were further incubated at 37° C. for 1 h. Then, 150 μl of medium was removed without disturbing the MT4 cell clusters containing the formazan crystals. Solubilization of the formazan crystals was achieved by adding 100 μl 5% Triton X-100 in acidified isopropanol (5 ml concentrated HCl per liter solvent). Complete dissolution of the formazan crystals was obtained after the plates had been placed on a plate shaker for 10 min. Finally the absorbances were read at two wavelengths (540 and 690 nm). From these optical density (OD) data, 50% inhibitory (IC50) and 50% cytotoxic (CC50) concentrations were derived.
(§7) An HIV infected patient with a therapy history including RT and protease inhibitors donated plasma whose susceptibility to a number of RT inhibitors and protease inhibitors was determined according to the protocol set out in Example 1.

[2] = system: recombinant virus from patient viral RNA (Example 10, drug-naive patient); assay: Recombinant virus assay (MT4/MTT), drug-naive patient of Example 10; details: for IC50: Human immunodeficiency virus 1, Table 6, Example 10 patient virus
Method: as §1, §2, §3, §4, §5, §6
A drug-naive HIV-infected patient donated plasma whose susceptibility to a number of RT inhibitors and protease inhibitors was determined according to the protocol set out in Example 1. Recombinant wild type HIV strain recIIIB was used as a reference HIV virus.

[3] = system: Recombinant wild type HIV strain recIIIB; assay: Antiviral MT4/MTT assay with reference virus recIIIB; details: read-out: Anti-HIV-1 activity IC50 (μM) recIIIB ref (2)
Method: as §4, §5, §6

[4] = system: recombinant virus from patient viral RNA (Example 11); assay: Recombinant virus assay (MT4/MTT), patient of Example 11 (therapy history RT and protease inhibitors); details: for IC50: Human immunodeficiency virus 1, Table 7, Example 11 patient virus
Method: as §1, §2, §3, §4, §5, §6
as §7, with “1. Recombinant wild type HIV strain recIIIb was used as a reference HIV virus.” for “1.”

[5] = MT4 cells, read-out: Anti-HIV-1 activity IC50 (μM) Exp. 1
[6] = mean, read-out: Anti-HIV-1 activity IC50 (μM) Mean (1)
[7] = MT4 cells, read-out: Anti-HIV-1 activity IC50 (μM) Exp. 2

CC(C)(C)NC(=O)[C@@H]1CN(Cc2cccnc2)CCN1C[C@@H](O)C[C@@H](Cc1ccccc1)C(=O)N[C@H]1c2ccccc2C[C@H]1O [indinavir]
susceptibility of the patient's HIV strain (in words) ([1]; Example 12 patient, conclusion from Table 8): decreased susceptibility
IC50 [1, 5]: 0.124 µM
IC50 [1, 6]: 0.124 µM
ratio (1)/(2) ([1]; Table 8, patient mean IC50 / recIIIB IC50, Example 12): 8
IC50 [2, 5]: 0.013 µM
IC50 [2, 7]: 0.013 µM
IC50 [2, 6]: 0.013 µM
ratio (1)/(2) ([2]; Table 6, patient mean IC50 / recIIIB IC50, Example 10): 0.8
IC50 ([3]; Human immunodeficiency virus 1, Table 6, reference run of Example 10): 0.016 µM
IC50 ([3]; Human immunodeficiency virus 1, Table 7, reference run of Example 11): 0.027 µM
IC50 ([3]; Human immunodeficiency virus 1, Table 8, reference run of Example 12): 0.016 µM
susceptibility of the patient's HIV strain (in words) ([4]; Example 11 patient, conclusion from Table 7): decreased susceptibilty
IC50 [4, 5]: 0.229 µM
IC50 [4, 7]: 0.416 µM
IC50 [4, 6]: 0.323 µM
ratio (1)/(2) ([4]; Table 7, patient mean IC50 / recIIIB IC50, Example 11): 12
